Reference: patent US6699660B2, “Immediate early genes and methods of use therefor” (The Johns Hopkins University School of Medicine, priority 1998, dated 2004)

Assays:
c-fos mRNA = assay: 3-NP ischemia model, Northern blot of total brain RNA; assay type: in vivo, rat; conditions: 3-NP 20 mg/kg i.p., three hours post-injection, total brain RNA without cerebellum; PSL - background; untreated 18.1
GAPDH mRNA = assay: as above; assay type: in vivo, rat; conditions: 3-NP 20 mg/kg i.p., three hours post-injection, total brain RNA without cerebellum; PSL - background; untreated 487.02
Description: (§1) In another study, the expression pattern of L100 and L119 was determined using two models for ischemia. Briefly, neurons degenerate in brain and spinal cord after acute insults (e.g., stroke, cardiac arrest, and trauma) and during progressive, adult-onset diseases (e.g., amyotrophic lateral sclerosis, and Alzheimer's disease). Impaired energy metabolism plays an important role in neuronal cell death after brain ischemia, and apoptosis has been implicated in cell death induced by metabolic impairment. The irreversible inhibitor of succinate dehydrogenase in the mitochondria, 3-nitroproplonic acid (3-NP), inhibits oxidative phosphorylation and causes intracellular hypoxia. Thus, one model used to study ischemia involves intrastriatal injections of 3-NP, which is known to produce selective cell death similar to that observed in transient ischemia and Huntington's disease (McLaughlin et al., J. Neurochem 70:2406-2415 (1998)). The other model is a global ischemic paradigm that involves a 15 minute insult by complete occlusion of the carotis.
(§2) In the 3-NP study, 220-300 g Wistar rats were intraperitoneally injected with 20 mg/kg body weight. Three hours post-injections, the brain was removed and total RNA prepared. In the global ischemia study, 220-300 g Wistar rats were received a 15 minute insult (bilateral occlusion of the Carotis/arterial pressure=35 mm Hg). One hour later, the rats received a reperfusion followed by immediate brain dissection and total RNA preparation. Untreated rats were used as controls for each study. Ten (10) μg of total rat brain RNA (without cerebellum) was loaded per lane and blotted. Probes were prepared from the 3′ untranslated regions of L100 and L119. The Northern blot data was collected using a Phosphoimager (FLA2000 Fuji, Tina software) and expressed as PSL—background.

L100 mRNA [1] = assay: as above; assay type: in vivo, rat; conditions: 3-NP 20 mg/kg i.p., three hours post-injection, total brain RNA without cerebellum; PSL - background; untreated 30.95
Description: as §1, §2

L119 mRNA [2] = assay: as above; assay type: in vivo, rat; conditions: 3-NP 20 mg/kg i.p., three hours post-injection, total brain RNA without cerebellum; PSL - background; untreated 55.48
Description: as §1, §2

L100 mRNA [3] = assay: PTZ-induced seizures, mRNA expression by Northern blot; assay type: in vivo, rat; conditions: for Fold increase in L100 mRNA expression upon PTZ treatment: vs PBS; for L100 mRNA expression normalized to GADPH expression: Integral PSL - background PSL
Description: (§3) PTZ-induced seizures is a model used to study epilepsy and ischemia. Briefly, 300-350 g male Sprague-Dawley rats were intrapertoneally injected with either 50 mg/kg body weight of PTZ or PBS. Total RNA samples from the hippocampus, cortex, and cerebellum were prepared from treated rats at 20 minutes, 6 hours, and 24 hours post-injection. This RNA then was used to measure mRNA expression by Northern blot analysis. Control mRNA measurements included c-fos and GAPDH. A Phosphoimager FLA2000 (Fuji) was used to analyze the data, which was expressed as the Integral PSL—background PSL (1D evaluation with Aida version 2.0).

L119 mRNA [4] = assay: as above; assay type: in vivo, rat; conditions: for Fold increase in L119 mRNA expression upon PTZ treatment: 20 min, vs PBS; for L119 mRNA expression normalized to GADPH expression: 20 min after PTZ 50 mg/kg i.p., Integral PSL - background PSL
Description: as §3

R113 mRNA [5] = assay: as above; assay type: in vivo, rat; conditions: hippocampus, 6 hour, vs PBS
Description: as §3

R286 mRNA [6] = assay: as above; assay type: in vivo, rat; conditions: hippocampus, 6 hour, vs PBS
Description: as §3
(§4) In addition, rats that developed seizures following intraperitoneal injection of kainate or PTZ were analyzed for the expression of R286 mRNA in addition to the mRNA of other LEG clones (Tables III and V).

R286 mRNA [7] = assay: PTZ-induced seizures, in situ hybridization; assay type: in vivo, rat
Description: (§5) For in situ hybridization, Dig-labeled cRNA probes were used as described elsewhere (Kuner et al., Science 283:5398 (1999)). Specifically, R286 mRNA expression was the highest in the cortex and hippocampus while being moderately high in the cerebellar granule cells, brainstem nuclei, several lateral and medial thalamic nuclei, olfactory bulb, and striatum. […] Briefly, a probe from the 3′ untranslated region of R286 was used to hybridize a Northern blot containing 2 μg polyA^+ RNA from hippocampus from brains of untreated rats as well as rats receiving the multiple MECS treatment. After one day of exposure using the phosphoimager FLA2000 (Fuji), an upregulation of R286 mRNA was detected in the hippocampus (3.72 fold induction) collected four hours after the last MECS treatment. An additional Northern blot analysis using 10 μg total RNA from hippocampus from untreated rats and rats receiving the multiple MECS treatment was performed.
as §4

A013 mRNA = assay: kainate-induced seizures, mRNA expression by Northern blot and RT-PCR; assay type: in vivo, rat; conditions: hippocampus, 1.5 hour, vs PBS
Description: (§6) Kainate-induced seizures is a model used to study epilepsy. Briefly, 300-350 g male Sprague-Dawley rats were intrapertoneally injected with either 10 mg/kg body weight of kainate or PBS. RNA samples from the hippocampus, cortex, and cerebellum were prepared from treated rats at 1.5, 6, and 24 hours post-injection. This RNA then was used to measure mRNA expression by Northern blot and RT-PCR analysis. Control mRNA measurements included c-fos, GAPDH, NO-38, and ATF-4 for the Northern blot analysis, and Hsp70, c-jun, Zif268, c-fos, Clathrin, and β-actin for the RT-PCR analysis. A Phosphoimager FLA2000 (Fuji) was used to analyze the data, which was expressed as the Integral PSL—background PSL (1D evaluation with Aida version 2.0).

L094 mRNA = assay: as above; assay type: in vivo, rat; conditions: hippocampus, 1.5 hour, vs PBS
Description: as §6

L100 mRNA [8] = assay: as above; assay type: in vivo, rat; conditions: for L100 mRNA expression normalized to GADPH expression: Integral PSL - background PSL; for Fold increase in L100 mRNA expression upon kainate treatment: vs PBS
Description: as §6

L119 mRNA [9] = assay: as above; assay type: in vivo, rat; conditions: for L119 mRNA expression normalized to GADPH expression: Integral PSL - background PSL; for Fold increase in L119 mRNA expression upon kainate treatment: vs PBS
Description: as §6

R113 mRNA [10] = assay: as above; assay type: in vivo, rat; conditions: hippocampus, 1.5 hour, vs PBS
Description: as §6

L100 mRNA [11] = assay: kainate-induced seizures, in situ hybridization; assay type: in vivo, rat; conditions: six hours following kainate injection
Description: For in situ hybridization, Dig-labeled cRNA probes were used as described elsewhere (Kuner et al., Science 283:5398 (1999)). […] Specifically, L100 mRNA expression was induced 17.2 fold by the multiple MECS treatment as determined from Northern blot data using total RNA from rat hippocampus (Table I).
as §6

R286 mRNA [12] = assay: kainate-induced seizures, in situ hybridization; assay type: in vivo, rat
Description: as §5, §4

[13] = system: R010 expression in PC12 cells; assay: NGF treatment of PC12 cells, R010 expression; assay type: cell-based
[14] = cortex, 6 hour after kainate 10 mg/kg i.p.
[15] = cortex, 24 hour after kainate 10 mg/kg i.p.
[16] = hippocampus, 1.5 hour after kainate 10 mg/kg i.p.
[17] = hippocampus, 6 hour after kainate 10 mg/kg i.p.
[18] = hippocampus, 24 hour after kainate 10 mg/kg i.p.

Molecule: O=C(O)CC[N+](=O)[O-] [3-NP, 3-nitroproplonic acid]
- c-fos mRNA expression after 3-NP treatment (c-fos mRNA): 26.64
- GAPDH mRNA expression after 3-NP treatment (GAPDH mRNA): 587.51
- L100 mRNA expression after 3-NP treatment (L100 mRNA [1]): 43.82
- L119 mRNA expression after 3-NP treatment (L119 mRNA [2]): 41.94

Molecule: C1CCc2nnnn2CC1 [PTZ, pentylenetetrazole]
- expression of L100 mRNA when acute seizures were induced by PTZ treatment (L100 mRNA [3]; PTZ 50 mg/kg i.p.): strongly upregulated
- Fold increase in L100 mRNA expression upon PTZ treatment (L100 mRNA [3]; cortex, 20 min): 2.84 fold
- L100 mRNA expression normalized to GADPH expression (L100 mRNA [3]; cortex, 20 min after PTZ 50 mg/kg i.p.): 2719
- L100 mRNA expression normalized to GADPH expression (L100 mRNA [3]; cortex, 6 hour after PTZ 50 mg/kg i.p.): 3740
- Fold increase in L100 mRNA expression upon PTZ treatment (L100 mRNA [3]; cortex, 6 hour): 3.22 fold
- L100 mRNA expression normalized to GADPH expression (L100 mRNA [3]; cortex, 24 hour after PTZ 50 mg/kg i.p.): 1825
- Fold increase in L100 mRNA expression upon PTZ treatment (L100 mRNA [3]; cortex, 24 hour): 1.55 fold
- Fold increase in L100 mRNA expression upon PTZ treatment (L100 mRNA [3]; hippocampus, 20 min): 3.1 fold
- L100 mRNA expression normalized to GADPH expression (L100 mRNA [3]; hippocampus, 20 min after PTZ 50 mg/kg i.p.): 1637
- L100 mRNA expression normalized to GADPH expression (L100 mRNA [3]; hippocampus, 6 hour after PTZ 50 mg/kg i.p.): 1992
- Fold increase in L100 mRNA expression upon PTZ treatment (L100 mRNA [3]; hippocampus, 6 hour): 2.33 fold
- L100 mRNA expression normalized to GADPH expression (L100 mRNA [3]; hippocampus, 24 hour after PTZ 50 mg/kg i.p.): 1903
- Fold increase in L100 mRNA expression upon PTZ treatment (L100 mRNA [3]; hippocampus, 24 hour): 1.97 fold
- Fold increase in L119 mRNA expression upon PTZ treatment (L119 mRNA [4]; cortex): 2.78 fold
- L119 mRNA expression normalized to GADPH expression (L119 mRNA [4]; cortex): 1605
- Fold increase in L119 mRNA expression upon PTZ treatment (L119 mRNA [4]; hippocampus): 2.82 fold
- L119 mRNA expression normalized to GADPH expression (L119 mRNA [4]; hippocampus): 965
- Fold increase in R113 mRNA expression upon PTZ treatment (R113 mRNA [5]): 2.0 fold
- Fold increase in R286 mRNA expression upon PTZ treatment (R286 mRNA [6]): 2.6 fold
- R286 mRNA expression by in situ hybridization (R286 mRNA [7]; 20 minutes post-PTZ injection): no upregulation
- R286 mRNA expression by in situ hybridization (R286 mRNA [7]; 6 hours post-PZT injection, hippocampal pyramidal cell layer, cortex, thalamus, cerebellar Purkinje cell layer): mildly upregulated

Molecule: C=C(C)[C@H]1CN[C@H](C(=O)O)[C@H]1CC(=O)O [kainate]
- Fold increase in A013 mRNA expression upon kainate treatment (A013 mRNA): 9.8 fold
- Fold increase in L094 mRNA expression upon kainate treatment (L094 mRNA): 3.6 fold
- L100 mRNA expression normalized to GADPH expression (L100 mRNA [8]; [14]): 290
- Fold increase in L100 mRNA expression upon kainate treatment (L100 mRNA [8]; cortex, 6 hour): 3.58 fold
- L100 mRNA expression normalized to GADPH expression (L100 mRNA [8]; [15]): 131
- Fold increase in L100 mRNA expression upon kainate treatment (L100 mRNA [8]; cortex, 24 hour): 1.52 fold
- L100 mRNA expression normalized to GADPH expression (L100 mRNA [8]; [16]): 85251
- Fold increase in L100 mRNA expression upon kainate treatment (L100 mRNA [8]; hippocampus, 1.5 hour): 18.44 fold
- L100 mRNA expression normalized to GADPH expression (L100 mRNA [8]; [17]): 15444
- Fold increase in L100 mRNA expression upon kainate treatment (L100 mRNA [8]; hippocampus, 6 hour): 1.97 fold
- L100 mRNA expression normalized to GADPH expression (L100 mRNA [8]; [18]): 16551
- Fold increase in L100 mRNA expression upon kainate treatment (L100 mRNA [8]; hippocampus, 24 hour): 4.20 fold
- expression of L100 mRNA when acute seizures were induced by kainate treatment (L100 mRNA [8]; kainate 10 mg/kg i.p.): strongly upregulated
- L119 mRNA expression normalized to GADPH expression (L119 mRNA [9]; [14]): 1262
- L119 mRNA expression normalized to GADPH expression (L119 mRNA [9]; [15]): 505
- L119 mRNA expression normalized to GADPH expression (L119 mRNA [9]; [16]): 69982
- Fold increase in L119 mRNA expression upon kainate treatment (L119 mRNA [9]; hippocampus, 1.5 hour): 24.85 fold
- L119 mRNA expression normalized to GADPH expression (L119 mRNA [9]; [17]): 11519
- Fold increase in L119 mRNA expression upon kainate treatment (L119 mRNA [9]; hippocampus, 6 hour): 2.51 fold
- L119 mRNA expression normalized to GADPH expression (L119 mRNA [9]; [18]): 12944
- Fold increase in L119 mRNA expression upon kainate treatment (L119 mRNA [9]; hippocampus, 24 hour): 4.64 fold
- Fold increase in R113 mRNA expression upon kainate treatment (R113 mRNA [10]): 2.0 fold
- L100 mRNA regulation by in situ hybridization (L100 mRNA [11]; dentate gyrus, CA3 and CA4 of hippocampus, entorrhinal cortex, cingulum, fimbria): strong upregulation
- L100 mRNA regulation by in situ hybridization (L100 mRNA [11]; thalamic nuclei, temporal, parietal, frontal, medial orbital and cingulate cortex, cerebellar granule cells): Moderate upregulation
- R286 mRNA expression by in situ hybridization (R286 mRNA [12]; 1.5 hours post-kainate injection): no upregulation
- R286 mRNA expression by in situ hybridization (R286 mRNA [12]; 6 hours post-kainate injection, hippocampal pyramidal cell layer, cortex, thalamus, cerebellar Purkinje cell layer): mildly upregulated

Molecule: NGF: NGF used to treat PC12 cells
- R010 expression in vitro [13]: rapidly induced
